Laboratory results: ChEMBL document CHEMBL4665869, “New thiazolopyrimidine as anticancer agents: Synthesis, biological evaluation, DNA binding, molecular modeling and ADMET study” (Bioorg Med Chem Lett, 2020)
Converted amounts (≈) assume the structure as drawn.

Experiments:
MOLT-4 = experiment: Growth inhibition of human MOLT-4 cells at 10 uM relative to control; format: functional; conditions: read-out: GI
BT-549 = experiment: Growth inhibition of human BT-549 cells at 10 uM relative to control; format: functional; conditions: read-out: GI
786-0 = experiment: Growth inhibition of human 786-0 cells at 10 uM relative to control; format: functional; conditions: read-out: GI
K562 = experiment: Growth inhibition of human K562 cells at 10 uM relative to control; format: functional; conditions: read-out: GI
HT-29 = experiment: Growth inhibition of human HT-29 cells at 10 uM relative to control; format: functional; conditions: read-out: GI
OVCAR-8 = experiment: Growth inhibition of human OVCAR-8 cells at 10 uM relative to control; format: functional; conditions: read-out: GI
SNB-75 = experiment: Growth inhibition of human SNB-75 cells at 10 uM relative to control; format: functional; conditions: read-out: GI
COLO 205 = experiment: Growth inhibition of human COLO 205 cells at 10 uM relative to control; format: functional; conditions: read-out: GI
SN12C = experiment: Growth inhibition of human SN12C cells at 10 uM relative to control; format: functional; conditions: read-out: GI
MDA-MB-231 = experiment: Growth inhibition of human MDA-MB-231 cells at 10 uM relative to control; format: functional; conditions: read-out: GI
Hs-578T = experiment: Growth inhibition of human Hs-578T cells at 10 uM relative to control; format: functional; conditions: read-out: GI
HCT-116 = experiment: Growth inhibition of human HCT-116 cells at 10 uM relative to control; format: functional; conditions: read-out: GI
SR = experiment: Growth inhibition of human SR cells at 10 uM relative to control; format: functional; conditions: read-out: GI
SK-MEL-2 = experiment: Growth inhibition of human SK-MEL-2 cells at 10 uM relative to control; format: functional; conditions: read-out: GI
MDA-MB-468 = experiment: Growth inhibition of human MDA-MB-468 cells at 10 uM relative to control; format: functional; conditions: read-out: GI
HCC 2998 = experiment: Growth inhibition of human HCC 2998 cells at 10 uM relative to control; format: functional; conditions: read-out: GI
KM12 = experiment: Growth inhibition of human KM12 cells at 10 uM relative to control; format: functional; conditions: read-out: GI
LOX IMVI = experiment: Growth inhibition of human LOX IMVI cells at 10 uM relative to control; format: functional; conditions: read-out: GI
SF-295 = experiment: Growth inhibition of human SF-295 cells at 10 uM relative to control; format: functional; conditions: read-out: GI
ACHN = experiment: Growth inhibition of human ACHN cells at 10 uM relative to control; format: functional; conditions: read-out: GI
CAKI-1 = experiment: Growth inhibition of human CAKI-1 cells at 10 uM relative to control; format: functional; conditions: read-out: GI
NCI-H522 = experiment: Growth inhibition of human NCI-H522 cells at 10 uM relative to control; format: functional; conditions: read-out: GI
M14 = experiment: Growth inhibition of human M14 cells at 10 uM relative to control; format: functional; conditions: read-out: GI
SF-539 = experiment: Growth inhibition of human SF-539 cells at 10 uM relative to control; format: functional; conditions: read-out: GI
U-251 = experiment: Growth inhibition of human U-251 cells at 10 uM relative to control; format: functional; conditions: read-out: GI
IGROV-1 = experiment: Growth inhibition of human IGROV-1 cells at 10 uM relative to control; format: functional; conditions: read-out: GI
SK-MEL-5 = experiment: Growth inhibition of human SK-MEL-5 cells at 10 uM relative to control; format: functional; conditions: read-out: GI
PC-3 = experiment: Growth inhibition of human PC-3 cells at 10 uM relative to control; format: functional; conditions: read-out: GI
A549 = experiment: Growth inhibition of human A549 cells at 10 uM relative to control; format: functional; conditions: read-out: GI
HOP-62 = experiment: Growth inhibition of human HOP-62 cells at 10 uM relative to control; format: functional; conditions: read-out: GI
HOP-92 = experiment: Growth inhibition of human HOP-92 cells at 10 uM relative to control; format: functional; conditions: read-out: GI
RXF 393 = experiment: Growth inhibition of human RXF 393 cells at 10 uM relative to control; format: functional; conditions: read-out: GI
MCF7 = experiment: Growth inhibition of human MCF7 cells at 10 uM relative to control; format: functional; conditions: read-out: GI
NCI-H460 = experiment: Growth inhibition of human NCI-H460 cells at 10 uM relative to control; format: functional; conditions: read-out: GI
NCI-H23 = experiment: Growth inhibition of human NCI-H23 cells at 10 uM relative to control; format: functional; conditions: read-out: GI
UACC-62 = experiment: Growth inhibition of human UACC-62 cells at 10 uM relative to control; format: functional; conditions: read-out: GI
DNA = experiment: Displacement of methyl green from DNA (unknown origin) assessed as DNA intercalation after 24 hrs by colorimetric assay; format: nucleic-acid assay
SW-620 = experiment: Growth inhibition of human SW-620 cells at 10 uM relative to control; format: functional; conditions: read-out: GI
NCI-H226 = experiment: Growth inhibition of human NCI-H226 cells at 10 uM relative to control; format: functional; conditions: read-out: GI
HL-60(TB) = experiment: Growth inhibition of human HL-60(TB) cells at 10 uM relative to control; format: functional; conditions: read-out: GI
A498 = experiment: Growth inhibition of human A498 cells at 10 uM relative to control; format: functional; conditions: read-out: GI
UO-31 = experiment: Growth inhibition of human UO-31 cells at 10 uM relative to control; format: functional; conditions: read-out: GI
SK-OV-3 = experiment: Growth inhibition of human SK-OV-3 cells at 10 uM relative to control; format: functional; conditions: read-out: GI
NCI-H322M = experiment: Growth inhibition of human NCI-H322M cells at 10 uM relative to control; format: functional; conditions: read-out: GI
OVCAR-5 = experiment: Growth inhibition of human OVCAR-5 cells at 10 uM relative to control; format: functional; conditions: read-out: GI
SK-MEL-28 = experiment: Growth inhibition of human SK-MEL-28 cells at 10 uM relative to control; format: functional; conditions: read-out: GI
SNB-19 = experiment: Growth inhibition of human SNB-19 cells at 10 uM relative to control; format: functional; conditions: read-out: GI
TK-10 = experiment: Growth inhibition of human TK-10 cells at 10 uM relative to control; format: functional; conditions: read-out: GI
DU-145 = experiment: Growth inhibition of human DU-145 cells at 10 uM relative to control; format: functional; conditions: read-out: GI
OVCAR-4 = experiment: Growth inhibition of human OVCAR-4 cells at 10 uM relative to control; format: functional; conditions: read-out: GI
MDA-MB-435 = experiment: Growth inhibition of human MDA-MB-435 cells at 10 uM relative to control; format: functional; conditions: read-out: GI
RPMI-8226 = experiment: Growth inhibition of human RPMI-8226 cells at 10 uM relative to control; format: functional; conditions: read-out: GI
CCRF-CEM = experiment: Growth inhibition of human CCRF-CEM cells at 10 uM relative to control; format: functional; conditions: read-out: GI
SF-268 = experiment: Growth inhibition of human SF-268 cells at 10 uM relative to control; format: functional; conditions: read-out: GI
HCT-15 = experiment: Growth inhibition of human HCT-15 cells at 10 uM relative to control; format: functional; conditions: read-out: GI
NCI/ADR-RES = experiment: Growth inhibition of human NCI/ADR-RES cells at 10 uM relative to control; format: functional; conditions: read-out: GI
Malme-3M = experiment: Growth inhibition of human Malme-3M cells at 10 uM relative to control; format: functional; conditions: read-out: GI
T47D = experiment: Growth inhibition of human T47D cells at 10 uM relative to control; format: functional; conditions: read-out: GI

COc1ccc(/C=C/C2=CC(c3ccc(OC)c(OC)c3)N3C(C)=CSC3=N2)cc1OC (stereo not drawn)
inhibition of growth at 10 µM (MOLT-4): < 10% | inhibition of growth at 10 µM (BT-549): < 10% | inhibition of growth at 10 µM (786-0): < 10% | inhibition of growth at 10 µM (K562): < 10% | inhibition of growth at 10 µM (HT-29): < 10% | inhibition of growth at 10 µM (OVCAR-8): < 10% | inhibition of growth at 10 µM (SNB-75): < 10% | inhibition of growth at 10 µM (COLO 205): < 10% | inhibition of growth at 10 µM (SN12C): < 10% | inhibition of growth at 10 µM (MDA-MB-231): < 10% | inhibition of growth at 10 µM (Hs-578T): < 10% | inhibition of growth at 10 µM (HCT-116): < 10% | inhibition of growth at 10 µM (SR): < 10% | inhibition of growth at 10 µM (SK-MEL-2): < 10% | inhibition of growth at 10 µM (MDA-MB-468): < 10% | inhibition of growth at 10 µM (HCC 2998): < 10% | inhibition of growth at 10 µM (KM12): < 10% | inhibition of growth at 10 µM (LOX IMVI): < 10% | inhibition of growth at 10 µM (SF-295): < 10% | inhibition of growth at 10 µM (ACHN): < 10% | inhibition of growth at 10 µM (CAKI-1): < 10% | inhibition of growth at 10 µM (NCI-H522): < 10% | inhibition of growth at 10 µM (M14): < 10% | inhibition of growth at 10 µM (SF-539): < 10% | inhibition of growth at 10 µM (U-251): < 10% | inhibition of growth at 10 µM (IGROV-1): < 10% | inhibition of growth at 10 µM (SK-MEL-5): < 10% | inhibition of growth at 10 µM (PC-3): < 10% | inhibition of growth at 10 µM (A549): < 10% | inhibition of growth at 10 µM (HOP-62): < 10% | inhibition of growth at 10 µM (HOP-92): 18% | inhibition of growth at 10 µM (RXF 393): < 10% | inhibition of growth at 10 µM (MCF7): < 10% | inhibition of growth at 10 µM (NCI-H460): < 10% | inhibition of growth at 10 µM (NCI-H23): < 10% | inhibition of growth at 10 µM (UACC-62): < 10% | IC50 (DNA): 72.54 µg/mL (≈ 161 µM) | inhibition of growth at 10 µM (SW-620): < 10% | inhibition of growth at 10 µM (NCI-H226): < 10% | inhibition of growth at 10 µM (HL-60(TB)): < 10% | inhibition of growth at 10 µM (A498): 17.6% | inhibition of growth at 10 µM (UO-31): 11.7% | inhibition of growth at 10 µM (SK-OV-3): < 10% | inhibition of growth at 10 µM (NCI-H322M): < 10% | inhibition of growth at 10 µM (OVCAR-5): < 10% | inhibition of growth at 10 µM (SK-MEL-28): < 10% | inhibition of growth at 10 µM (SNB-19): < 10% | inhibition of growth at 10 µM (TK-10): < 10% | inhibition of growth at 10 µM (DU-145): < 10% | inhibition of growth at 10 µM (OVCAR-4): < 10% | inhibition of growth at 10 µM (MDA-MB-435): < 10% | inhibition of growth at 10 µM (RPMI-8226): < 10% | inhibition of growth at 10 µM (CCRF-CEM): < 10% | inhibition of growth at 10 µM (SF-268): < 10% | inhibition of growth at 10 µM (HCT-15): < 10% | inhibition of growth at 10 µM (NCI/ADR-RES): < 10% | inhibition of growth at 10 µM (Malme-3M): < 10% | inhibition of growth at 10 µM (T47D): < 10%
